In patent publication US11072585B2 (PharmAkea, Inc., priority 2015, dated 2021):
pIC50: −log10 of the molar value. Where a name gives a salt, the structure may show the parent alone.

What follows are compounds tested against human LOXL2 (Homo sapiens (Human), UniProt Q9Y4K0) (assay: Human LOXL2 amine oxidase activity assay (Amplex Red)). Conditions: concentrated conditioned media from CHO cells stably expressing human LOXL2; 2 h at 37° C. with compound; DAP substrate.
human LOXL2, sequence (Q9Y4K0 26-774): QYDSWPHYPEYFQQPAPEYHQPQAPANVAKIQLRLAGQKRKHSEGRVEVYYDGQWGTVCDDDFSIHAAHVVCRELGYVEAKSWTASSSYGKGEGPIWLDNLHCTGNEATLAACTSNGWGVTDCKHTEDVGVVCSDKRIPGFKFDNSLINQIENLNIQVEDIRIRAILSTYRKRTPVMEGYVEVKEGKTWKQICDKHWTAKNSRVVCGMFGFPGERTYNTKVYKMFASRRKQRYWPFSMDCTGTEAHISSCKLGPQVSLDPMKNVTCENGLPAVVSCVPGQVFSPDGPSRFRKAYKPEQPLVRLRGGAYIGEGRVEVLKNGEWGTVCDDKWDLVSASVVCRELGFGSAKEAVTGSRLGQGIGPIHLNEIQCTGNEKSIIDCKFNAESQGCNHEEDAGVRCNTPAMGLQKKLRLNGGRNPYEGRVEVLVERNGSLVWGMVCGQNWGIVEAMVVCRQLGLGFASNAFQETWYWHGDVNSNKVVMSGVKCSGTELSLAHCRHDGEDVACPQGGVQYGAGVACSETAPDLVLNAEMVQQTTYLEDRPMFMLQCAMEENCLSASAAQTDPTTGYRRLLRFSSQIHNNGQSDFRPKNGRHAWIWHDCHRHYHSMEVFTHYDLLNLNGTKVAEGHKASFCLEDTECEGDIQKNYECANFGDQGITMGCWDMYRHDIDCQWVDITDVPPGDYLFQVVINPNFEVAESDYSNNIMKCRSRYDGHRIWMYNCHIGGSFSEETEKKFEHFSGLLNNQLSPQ
Format: biochemical
Procedure, shortened: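 Concentrated conditioned medium from CHO cells stably expressing human LOXL2 was preincubated with compound for 2 h at 37 °C in 50 mM borate, pH 8. 1,5-diaminopentane substrate and Amplex Red/HRP were then added. Fluorescence (544/590) was read kinetically every 2 min for 1 h, with activity taken from the linear slope.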
Work on `Cl.NCc1cc(Oc2cccc3c2CCC(=O)N3)nc(C(F)(F)F)c1` [Compound 1-59, 5-((4-(Aminomethyl)-6-(trifluoromethyl)pyridin-2-yl)oxy)-3,4-dihydroquinolin-2(1H)-one hydrochloride] yielded a pIC50 of over 6.52. For `Cl.NCc1cc(Oc2cccc(C(=O)N3C[C@H](O)[C@@H](F)C3)c2)nc(C(F)(F)F)c1` (stereo in doubt) [Compound 1-20, (S,S)-trans-(3-((4-(Aminomethyl)-6-(trifluoromethyl)pyridin-2-yl)oxy)phenyl)(3-fluoro-4-hydroxypyrrolidin-1-yl)methanone hydrochloride], the pIC50 was over 6.52. `CS(=O)(=O)CCNC(=O)c1cccc(Oc2cc(CN)cc(C(F)(F)F)n2)c1.Cl` [Compound 1-30, 3-((4-(Aminomethyl)-6-(trifluoromethyl)pyridin-2-yl)oxy)-N-(2-(methylsulfonyl)ethyl)benzamide hydrochloride] showed a pIC50 of over 6.52. With `NCc1cc(Oc2cccc(C(=O)NO)c2)nc(C(F)(F)F)c1` [Compound 1-218, 3-((4-(Aminomethyl)-6-(trifluoromethyl)pyridin-2-yl)oxy)-N-hydroxybenzamide hydrochloride] the pIC50 was 6.00 to 6.52. For `NCc1cc(Oc2cccc(C(=O)Nc3nnco3)c2)nc(C(F)(F)F)c1` [Compound 1-228, 3-((4-(Aminomethyl)-6-(trifluoromethyl)pyridin-2-yl)oxy)-N-(1,3,4-oxadiazol-2-yl)benzamide hydrochloride], the pIC50 was over 6.52. Compound `NCc1cc(O[C@H]2CCCN(C(=O)c3cncnc3)C2)nc(C(F)(F)F)c1` [Compound 1-50, (S)-(3-((4-(Aminomethyl)-6-(trifluoromethyl)pyridin-2-yl)oxy)piperidin-1-yl)(pyrimidin-5-yl)methanone trifluoroacetate] has a pIC50 of over 6.52. Compound `NCc1cc(Oc2cccc(C(=O)NC3(CO)CC3)c2)nc(C(F)(F)F)c1` [Compound 1-31, 3-((4-(Aminomethyl)-6-(trifluoromethyl)pyridin-2-yl)oxy)-N-(1-(hydroxymethyl)cyclopropyl)benzamide hydrochloride] has a pIC50 of over 6.52. `NCc1cc(Sc2cccc(C(=O)Nc3ccccc3)c2)nc(C(F)(F)F)c1` [Compound 1-68, 3-((4-(Aminomethyl)-6-(trifluoromethyl)pyridin-2-yl)thio)-N-phenylbenzamide hydrochloride] showed a pIC50 of over 6.52. `NCc1cc(Oc2cc(C(=O)N3C[C@@H](O)[C@H](F)C3)ccc2O)nc(C(F)(F)F)c1` (racemic) [Compound 1-229, Racemic-trans-(3-((4-(aminomethyl)-6-(trifluoromethyl)pyridin-2-yl)oxy)-4-hydroxyphenyl)(3-fluoro-4-hydroxypyrrolidin-1-yl)methanone hydrochloride] was tested, and the pIC50 was 6.00 to 6.52. For `CS(=O)(=O)OC1CN(C(=O)c2cccc(Oc3cc(CN)cc(C(F)(F)F)n3)c2)CC1F` (centres unmarked) [Compound 1-214, hydrochloride], the pIC50 was over 6.52. `NCc1cc(Oc2cccc(C(=O)NCC3CCC(=O)N3)c2)nc(C(F)(F)F)c1` (racemic) [Compound 1-29, Racemic-3-((4-(aminomethyl)-6-(trifluoromethyl)pyridin-2-yl)oxy)-N-((5-oxopyrrolidin-2-yl)methyl)benzamide hydrochloride] showed a pIC50 of over 6.52. With `NCc1cc(Oc2cccc(C(=O)N[C@@H]3CCC[C@@H]3O)c2)nc(C(F)(F)F)c1` [Compound 1-209, 3-((4-(Aminomethyl)-6-(trifluoromethyl)pyridin-2-yl)oxy)-N-((1R,2S)-2-hydroxycyclopentyl)benzamide hydrochloride] the pIC50 was over 6.52. `NCc1cc(O[C@@H]2CCN(C(=O)Nc3ccccc3)C2)nc(C(F)(F)F)c1` [Compound 1-39, (R)-3-((4-(Aminomethyl)-6-(trifluoromethyl)pyridin-2-yl)oxy)-N-phenylpyrrolidine-1-carboxamide trifluoroacetate] was tested, and the pIC50 was over 6.52. `NCc1cc(Oc2cccc(-n3ccccc3=O)c2)nc(C(F)(F)F)c1` [Compound 1-169, 1-(3-((4-(Aminomethyl)-6-(trifluoromethyl)pyridin-2-yl)oxy)phenyl)pyridin-2(1H)-one] showed a pIC50 of over 6.52. For `NCc1cc(Oc2cc(C(=O)N3C[C@@H](O)[C@H](F)C3)ccc2OCc2ccccc2)nc(C(F)(F)F)c1` (racemic) [Compound 1-231, Racemic-trans-(3-((4-(aminomethyl)-6-(trifluoromethyl)pyridin-2-yl)oxy)-4-(benzyloxy)phenyl)(3-fluoro-4-hydroxypyrrolidin-1-yl)methanone], the pIC50 was over 6.52. `Cc1cc(=O)n(Cc2cc(CN)cc(C(F)(F)F)n2)c(=O)n1Cc1ccccc1` [Compound 1-134, 3-((4-(Aminomethyl)-6-(trifluoromethyl)pyridin-2-yl)methyl)-1-benzyl-6-methylpyrimidine-2,4(1H,3H)-dione hydrochloride] showed a pIC50 of over 6.52. In the case of `NCc1cc(-c2cccnc2)nc(C(F)(F)F)c1` [Compound 1-1, (6-(Trifluoromethyl)-[2,3′-bipyridin]-4-yl)methanamine trifluoroacetate], the pIC50 was over 6.52. For “N′-(4-(Aminomethyl)-6-(trifluoromethyl)pyridin-2-yl)-N^3-(2-(methylsulfonyl)ethyl)isophthalamide trifluoroacetate [Compound 1-242]”, the pIC50 was over 6.52. Work on `NCc1cc(O[C@H]2CCN(C(=O)Nc3ccccc3)C2)nc(C(F)(F)F)c1` [Compound 1-40, (S)-3-((4-(Aminomethyl)-6-(trifluoromethyl)pyridin-2-yl)oxy)-N-phenylpyrrolidine-1-carboxamide trifluoroacetate] yielded a pIC50 of over 6.52. `NCc1cc(Oc2cccc(C(=O)NCC3(O)CCC3)c2)nc(C(F)(F)F)c1` [Compound 1-201, 3-((4-(Aminomethyl)-6-(trifluoromethyl)pyridin-2-yl)oxy)-N-((1-hydroxycyclobutyl)methyl)benzamide hydrochloride] showed a pIC50 of over 6.52. `NCc1cc(Oc2cccc(C(=O)NCc3cc4ccccc4s3)c2)nc(C(F)(F)F)c1` [Compound 1-10, 3-((4-(Aminomethyl)-6-(trifluoromethyl)pyridin-2-yl)oxy)-N-(benzo[b]thiophen-2-ylmethyl)benzamide hydrochloride] gave a pIC50 of over 6.52. `NCc1cc(O[C@H]2CCCN(C(=O)Cc3ccc(Cl)c(Cl)c3)C2)nc(C(F)(F)F)c1` [Compound 1-47, (S)-1-(3-((4-(Aminomethyl)-6-(trifluoromethyl)pyridin-2-yl)oxy)piperidin-1-yl)-2-(3,4-dichlorophenyl)ethanone trifluoroacetate] was tested, and the pIC50 was over 6.52. With `NCc1cc(Oc2cccc(C(=O)N3CC[C@@H](CO)C3)c2)nc(C(F)(F)F)c1` [Compound 1-26, (R)-(3-((4-(Aminomethyl)-6-(trifluoromethyl)pyridin-2-yl)oxy)phenyl)(3-(hydroxymethyl)pyrrolidin-1-yl)methanone hydrochloride] the pIC50 was over 6.52. Compound `NCc1cc(Oc2cccc(C(=O)N3CC[C@@H](N)C3)c2)nc(C(F)(F)F)c1` [Compound 1-22, (R)-(3-((4-(Aminomethyl)-6-(trifluoromethyl)pyridin-2-yl)oxy)phenyl)(3-aminopyrrolidin-1-yl)methanone dihydrochloride] has a pIC50 of over 6.52. In the case of `Cl.[2H]C([2H])(N)c1cc(Oc2cccc(C(=O)Nc3ccccc3)c2)nc(C(F)(F)F)c1` [Compound 1-8, 3-((4-(Aminomethyl-d2)-6-(trifluoromethyl)pyridin-2-yl)oxy)-N-phenylbenzamide hydrochloride], the pIC50 was over 6.52. Work on `NCc1cc(Oc2cccc3c2ccn3CC(=O)N2CCNCC2)nc(C(F)(F)F)c1` [Compound 1-233, 2-(4-((4-(Aminomethyl)-6-(trifluoromethyl)pyridin-2-yl)oxy)-1H-indol-1-yl)-1-(piperazin-1-yl)ethan-1-one dihydrochloride] yielded a pIC50 of 6.00 to 6.52. `NCc1cc(Oc2cccc(C(=O)N3C[C@@H](F)[C@@H](O)C3)c2)nc(C(F)(F)F)c1` (racemic) [Compound 1-211, Racemic-cis-(3-((4-(aminomethyl)-6-(trifluoromethyl)pyridin-2-yl)oxy)phenyl)(3-fluoro-4-hydroxypyrrolidin-1-yl)methanone hydrochloride] gave a pIC50 of over 6.52. `CN(C(=O)Cn1ccc2c(Oc3cc(CN)cc(C(F)(F)F)n3)cccc21)c1ccccc1` [Compound 1-38, 2-(4-((4-(Aminomethyl)-6-(trifluoromethyl)pyridin-2-yl)oxy)-1H-indol-1-yl)-N-methyl-N-phenylacetamide hydrochloride] showed a pIC50 of over 6.52.

Each compound was assayed on bleomycin-induced lung fibrosis in C57Bl/6 male mice (assay: Mouse oropharyngeal bleomycin model of lung fibrosis). Conditions: dosed prophylactically at 60 mg/kg p.o.
Format: in vivo
Method: Example B-3: Mouse Oropharyngeal Bleomycin Model of Lung Fibrosis
Lung fibrosis is induced in C57Bl/6 male mice by administering bleomycin (0.1-4 U/kg) via oropharyngeal instillation. Mice are either pretreated with vehicle or test compound (1 day to 1 hour) orally, intraperitoneally, intravenously or subcutaneously before bleomycin installation (prophylactic dosing) or 7-14 days post bleomycin instillation (therapeutic dosing). The route and frequency of dosing are based on previously determined pharmacokinetic properties for the LOXL2 inhibitor in mouse. After bleomycin instillation animals are monitored daily for weight loss and clinical signs for 14-28 days prior to sacrifice. Animals are euthanized at study termination and weighed and blood (for isolation of plasma) and bronchoalveolar lavage are collected and frozen for subsequent analyses. Lungs are removed, weighed, then either inflated and fixed by instillation of 10% formalin and prepared for histological examination or homogenized in 1 ml PBS for collagen determination using a hydroxyproline assay. For histological examination, lung slices are stained with Masson's trichrome or Picro-Sirius red to measure cross-linked collagen as an indicator of fibrosis and an Ashcroft score of lung fibrotic and inflammatory damage determined. In addition, immunohistochemistry of fibrotic proteins such as a-smooth muscle actin can be recorded. For lung hydroxyproline content, 0.5 ml of the lung homogenate is removed and added to 0.5 ml 12 N HCl and the samples heated at 120° C. overnight. After the acid hydrolysis, 25-100 μl of the supernatant is dried down, resuspended in 25 μl water and the hydroxyproline content determined by the addition of 0.5 ml Chloramine T solution (140 mg Chloramine T in 6.5 ml ddH2O+1 ml n-propanol+2.5 ml 1M sodium acetate) and incubation at room temperature for 20 min. After the incubation, 0.5 ml Erlich's solution (1.48 g of 4-(dimethylamino(benzaldehyde) in 7 ml n-propanol+2.88 ml 60% perchloric acid and 0.12 ml ddH2O) is added and incubated at 65° C. for 15 min before reading the absorbance at 550 nm. The concentration of hydroxyproline in each […] is determined from a hydroxyproline (purchased from Sigma) standard curve.
In the case of `Cl.NCc1cc(Oc2cccc3c2CCC(=O)N3)nc(C(F)(F)F)c1` [Compound 1-59, 5-((4-(Aminomethyl)-6-(trifluoromethyl)pyridin-2-yl)oxy)-3,4-dihydroquinolin-2(1H)-one hydrochloride], the “efficacy in bleomycin lung fibrosis model, prophylactic dosing” value (shortened to “efficacy … prophylactic dosing”) was “efficacious”. In the case of `Cl.NCc1cc(Oc2cccc(C(=O)N3C[C@H](O)[C@@H](F)C3)c2)nc(C(F)(F)F)c1` (stereo in doubt) [Compound 1-20, (S,S)-trans-(3-((4-(Aminomethyl)-6-(trifluoromethyl)pyridin-2-yl)oxy)phenyl)(3-fluoro-4-hydroxypyrrolidin-1-yl)methanone hydrochloride], the “efficacy … prophylactic dosing” value was “efficacious”. For `CS(=O)(=O)CCNC(=O)c1cccc(Oc2cc(CN)cc(C(F)(F)F)n2)c1.Cl` [Compound 1-30, 3-((4-(Aminomethyl)-6-(trifluoromethyl)pyridin-2-yl)oxy)-N-(2-(methylsulfonyl)ethyl)benzamide hydrochloride], the “efficacy … prophylactic dosing” value was “efficacious”.

Same assay, conditions: dosed therapeutically at 60 mg/kg p.o.
For `Cl.NCc1cc(Oc2cccc(C(=O)N3C[C@H](O)[C@@H](F)C3)c2)nc(C(F)(F)F)c1` (stereo in doubt) [Compound 1-20, (S,S)-trans-(3-((4-(Aminomethyl)-6-(trifluoromethyl)pyridin-2-yl)oxy)phenyl)(3-fluoro-4-hydroxypyrrolidin-1-yl)methanone hydrochloride], the “efficacy in bleomycin lung fibrosis model, therapeutic dosing” value was “efficacious”.
